The target of assay [1] is T1, PDK1 (Homo sapiens, UniProt O15530).
T1 construct: His6 (N)
T1 sequence (O15530 51-556 limits assumed): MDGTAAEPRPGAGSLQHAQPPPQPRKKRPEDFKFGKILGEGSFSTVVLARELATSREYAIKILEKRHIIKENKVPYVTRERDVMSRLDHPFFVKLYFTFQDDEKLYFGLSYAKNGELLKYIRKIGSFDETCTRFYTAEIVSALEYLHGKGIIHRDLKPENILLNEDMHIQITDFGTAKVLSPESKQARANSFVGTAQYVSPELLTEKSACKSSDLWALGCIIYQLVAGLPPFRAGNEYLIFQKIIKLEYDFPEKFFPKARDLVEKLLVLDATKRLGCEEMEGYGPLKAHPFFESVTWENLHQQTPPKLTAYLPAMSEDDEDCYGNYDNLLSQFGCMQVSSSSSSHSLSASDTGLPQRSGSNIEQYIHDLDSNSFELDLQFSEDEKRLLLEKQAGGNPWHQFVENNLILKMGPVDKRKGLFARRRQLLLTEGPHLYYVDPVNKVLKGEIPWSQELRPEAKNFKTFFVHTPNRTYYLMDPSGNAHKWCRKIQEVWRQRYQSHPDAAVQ
The experiment in a line: Test for the inhibition of PDK1 (384-well flashplate, 33P-ATP). The format is biochemical. Particulars: His6-PDK1 3.4 nM, 4 μM ATP, 30° C., 60 min. As to the method:
4.0 Test for the Inhibition of PDK1
The experimental batches are carried out in a flashplate system with 384 wells/microtitration plate.
In each case, the PDK1 sample His6-PDK1(1-50)(3.4 nM), the PDK1 substrate biotin-bA-bA-[…] (400 nM), 4 μM ATP (with 0.2 μCi of ^33P-ATP/well) and the test substance in 50 μl of conventional experimental solution per well are incubated at 30° C. for 60 min. The test substances are employed in corresponding concentrations (if desired in a dilution series). The control is carried out without test substance. The reaction is stopped using standard methods and washed. The activity of the kinase is measured via the incorporated radioactivity in top count. In order to determine the non-specific kinase reaction (blank value), the experimental batches are carried out in the presence of 100 nM staurosporin.
The radioactivity (decompositions per minute) of the blank value (no use of test substance in the presence of staurosporin) is subtracted from all other radioactivity values. The controls (kinase activity without test substance) are set equal to 100 percent and all other radioactivity values (after subtracting the blank value) are expressed set in relation thereto (for example in % of the control).
IC50 values (50% inhibition) are determined with the aid of statistics programmes, such as, for example, RS1.

The target in assay [2] is T2, TANK binding kinase (TBK1) (Homo sapiens, UniProt Q9UHD2).
T2 sequence (Q9UHD2 1-729): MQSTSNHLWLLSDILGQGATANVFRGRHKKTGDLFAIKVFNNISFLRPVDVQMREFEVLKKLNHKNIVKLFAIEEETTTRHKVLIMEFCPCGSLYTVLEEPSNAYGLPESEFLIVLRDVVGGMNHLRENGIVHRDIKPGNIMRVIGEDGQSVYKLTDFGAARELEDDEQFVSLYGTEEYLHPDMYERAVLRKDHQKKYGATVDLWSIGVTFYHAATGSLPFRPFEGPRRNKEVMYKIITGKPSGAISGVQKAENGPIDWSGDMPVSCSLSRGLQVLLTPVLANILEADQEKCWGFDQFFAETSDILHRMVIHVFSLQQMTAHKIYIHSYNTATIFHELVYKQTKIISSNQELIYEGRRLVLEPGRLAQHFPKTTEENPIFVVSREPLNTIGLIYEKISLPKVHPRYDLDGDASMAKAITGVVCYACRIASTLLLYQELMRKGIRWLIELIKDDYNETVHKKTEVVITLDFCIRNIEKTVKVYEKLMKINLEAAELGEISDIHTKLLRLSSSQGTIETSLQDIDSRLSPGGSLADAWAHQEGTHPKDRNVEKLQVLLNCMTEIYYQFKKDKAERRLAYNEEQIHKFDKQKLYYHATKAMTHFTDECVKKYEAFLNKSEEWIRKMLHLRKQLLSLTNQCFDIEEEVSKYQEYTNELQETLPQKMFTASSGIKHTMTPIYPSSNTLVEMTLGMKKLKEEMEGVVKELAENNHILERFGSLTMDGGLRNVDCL
The experiment in a line: TBK1 kinase test (384-well flashplate). It counts as biochemical. Particulars: 0.6 nM TBK1, 10 μM ATP, 30° C., 120 min. Here is the method:
The kinase assay is performed as 384-well flashplate assay. 0.6 nM TANK binding kinase (TBK1), 800 nM biotinylated MELK-derived peptide (biotin-Ah-Ah-[…]) and 10 μM ATP (with 0.25 μCi of ^33P-ATP/well) are incubated in a total volume of 50 μl (10 mM MOPS, 10 mM magnesium acetate, 0.1 mM EGTA, 1 mM DTT, 0.02% of Brij35, 0.1% of BSA, pH 7.5) with or without test substance at 30° C. for 120 min. The reaction is stopped using 25 μl of 200 mM EDTA solution, filtered off with suction after 30 min at room temperature, and the wells are washed 3 times with 100 μl of 0.9% NaCl solution. The non-specific proportion of the kinase reaction (blank) is determined using 100 nM staurosporine. Radioactivity is measured in the Topcount. IC50 values are calculated using RS1.

In general, IC50 refers to the concentration that inhibits the measured activity by half. For `Cc1cccc(Cn2cc(-c3c[nH]c4ncc(-c5cnn(C)c5)cc34)nn2)c1` [Compound A7, 3-[1-(3-Methylbenzyl)-1H-1,2,3-triazol-4-yl]-5-(1-methyl-1H-pyrazol-4-yl)-1H-pyrrolo[2,3-b]pyridine], the half-inhibitory concentration (IC50) in assay [1] and in assay [2] was 0.5 to 1000 nM in each case.
In the case of `Cn1cc(-c2cnc3[nH]cc(-c4cn(Cc5ccncc5)nn4)c3c2)cn1` [Compound A9, 5-(1-Methyl-1H-pyrazol-4-yl)-3-(1-pyridin-4-ylmethyl-1H-1,2,3-triazol-4-yl)-1H-pyrrolo-[2,3-b]pyridine], the IC50 in assay [1] and in assay [2] was 0.5 to 1000 nM each time.
On to `Cn1cc(-c2cnc3[nH]cc(-c4cn(Cc5ccccc5F)nn4)c3c2)cn1` [Compound A17, 3-[1-(2-Fluorobenzyl)-1H-1,2,3-triazol-4-yl]-5-(1-methyl-1H-pyrazol-4-yl)-1H-pyrrolo-[2,3-b]pyridine], for which the IC50 in assay [1] and in assay [2] was 0.5 to 1000 nM in each case.
Take `CC(c1ccccc1C(F)(F)F)n1cc(-c2c[nH]c3ncc(-c4cnn(C)c4)cc23)nn1` (stereo not drawn) [Compound A20, 5-(1-Methyl-1H-pyrazol-4-yl)-3-{1-[1-(2-trifluoromethylphenyl)ethyl]-1H-1,2,3-triazol-4-yl}-1H-pyrrolo[2,3-b]pyridine]: the IC50 in assay [1] and in assay [2] was 0.5 to 1000 nM each time.
With `Cn1cc(-c2cnc3[nH]cc(-c4cn(Cc5cccc(F)c5F)nn4)c3c2)cn1` [Compound A25, 3-[1-(2,3-Difluorobenzyl)-1H-1,2,3-triazol-4-yl]-5-(1-methyl-1H-pyrazol-4-yl)-1H-pyrrolo-[2,3-b]pyridine], the IC50 in assay [1] and in assay [2] was 0.5 to 1000 nM each time.
For the compound `Cn1cc(-c2cnc3[nH]cc(-c4cn(Cc5ccc6ncccc6c5)nn4)c3c2)cn1` [Compound A29, 6-{4-[5-(1-Methyl-1H-pyrazol-4-yl)-1H-pyrrolo[2,3-b]pyridin-3-yl]-1,2,3-triazol-1-ylmethyl}quinoline], the IC50 in assay [1] and in assay [2] was 0.5 to 1000 nM in each case.

The values are drawn from patent publication US8541584B2, “3-(1,2,3-triazol-4-yl) pyrrolo [2,3-b] pyridine derivatives” (Merck Patent GmbH, priority 2009, dated 2013).
